Test results published in US9726659B2, “CMPF as a biomarker for diabetes and associated methods” (The Governing Council of the University of Toronto, priority 2012, dated 2017).

Assays:
[1] = test system: primary murine islets; assay: Glucose- and KCl-stimulated insulin secretion in primary murine islets; format: cell-based; conditions: co-treatment with 500 μM NAC, 24 hr
Method: LG=2.8 mM glucose, HG=16.7 mM glucose, KCl=16.7 mM glucose+30 mM KCl. *p<0.05.
Since beta cell failure is a major underlying cause of both GDM and T2D, the effect of increased CMPF on beta cell function was investigated both in vitro and in vivo. Using physiological concentrations of CMPF (20 uM and 200 uM, as observed in our NGT-pregnant and GDM-pregnant samples respectively (FIG. 2)), as well as a vehicle control (EtOH), its effect was studied on glucose-stimulated insulin secretion (GSIS) and insulin secretion in response to direct depolarization using the secretagogue KCl in an immortalized murine beta cell line (MIN6), as well as primary isolated human and murine islets (FIG. 3A). […] Therefore, high physiologically relevant levels of CMPF impair GSIS.

[2] = test system: mouse islets; assay: ROS accumulation in isolated islets (mitoSOX red, CM-H2-DCFDA); format: cell-based; conditions: co-treatment with 500 μM NAC, 24 hr
Method: A) Proinsulin in the media of 24 hr treated islets (n=4/group). B) Mitochondrial membrane potential (MMP) following acute addition of vehicle control or 200 μM of CMPF (N=3/group). C) ROS levels in 4- and 24-hour treated mouse islets with representative images (N=10-15 islets/mouse from 4 mice/group). D) Expression of antioxidant genes Cat and (e) Ucp2 (n=4/group). F) ROS accumulation in 24 hr-treated islets treated with 500 μM NAC (n=10 islets/mouse from 4 mice/group). G) GSIS and (h) total insulin content from 24 hr-treated islets co-treated with 500 μM NAC (n=4/group). Western blots showing (i) Ser9 phosphorylation of GSK3β, (j) Ser473 phosphorylation of AKT (n=3/group). K) Immunofluorescent staining showing nuclear translocation of FOXO1 and (l) PDX1 with CMPF and NAC treatment (n=3-6). Quantification of nuclear percentage of (m) FOXO1 and (n) PDX1 based on immunofluorescent staining with CMPF and NAC treatment. O) Western blots showing protein abundance of PDX1 and FOXO1. Values are mean+/−SEM. Student's t-test (a, c-j, m-o), one-way ANOVA (b). *P<0.05, **P<0.01, ***P<0.001.
The level of superoxide and H2O2 were determined using mitoSOX red and 2′,7′-dichlorodihydro fluorescein diacetate (CM-H2-DCFDA) respectively (Molecular Probes, Invitrogen, Canada) in isolated islets treated with either vehicle control or 200 μM CMPF for 4 or 24 hours, as previously described (Lee et al. 2009). […]

[3] = test system: murine islets; assay: Total insulin content in murine islets; format: cell-based; conditions: co-treatment with 500 μM NAC, 24 hr
Method: Murine islets were treated for 24 hrs with vehicle control (0 CMPF), 20 uM (20 CMPF), or 200 uM (200 CMPF) CMPF, and assessed for total insulin content and mRNA expression. […] Decreased expression of insulin processing enzymes PCSK1, 2 and CpE (F), (G), (H) indicate that CMPF may also impair post-translational insulin processing. Finally, CMPF causes decreased expression of the beta cell glucose transporter GLUT2, and GCK, the rate-limiting enzyme critical for glucose metabolism (I) and (J), perhaps impairing glucose sensing and metabolism. In all cases n=4, *P<0.05.
In the absence of apoptosis and necrosis, CMPF must be impairing GSIS by causing beta cell dysfunction. First, the effect of CMPF treatment on insulin biosynthesis was investigated to determine if insulin is available to be released upon stimulation. MIN6, murine and human islets were treated with vehicle control, 20 uM and 200 uM CMPF for 4 hrs (MIN6) or 24 hrs (islets), and total insulin content measured. […] Lower total insulin content may be due to either defective insulin processing from proinsulin to mature insulin, or insufficient insulin transcription. To determine the mechanism through which CMPF is reducing total insulin content, quantitative PCR (qPCR) was performed on RNA that was isolated from murine islets treated with either vehicle control or 200 uM CMPF for 24 hrs.

[4] = test system: dispersed CD1 mouse islet cells; assay: Immunofluorescent staining of FOXO1 and PDX1 localization; format: cell-based; conditions: treatment with NAC
Method: The cellular localization of FOXO1 and PDX1 were determined in dispersed CD1 mouse islet cells using immunofluorescence. The presence of the organic anion transporters (OATs) were determined in dispersed human islet cells also using immunofluorescence. Staining was performed as previously described (Diao et al., 2008). Images were acquired using a confocal microscope (Quorum Wave FX Spinning Disc; Perkin Elmer, Waltham M L, USA) and Volocity software (Perkin Elmer).
To determine the mechanism through which CMPF decreases insulin biosynthesis we examined its effect on these key regulators. Under normal conditions, AKT and GSK3β have reciprocal activities. Active pAKT phosphorylates and inactivates GSK3β, preventing phosphorylation of downstream targets (Humphrey et al., 2010). […] FOXO1 is normally sequestered in the cytosol due to phosphorylation by AKT (Kitamura et al., 2005). […] Altered activity of these transcription factors is further confirmed by decreased mRNA levels of key target genes including Inst, transcription factors Pdx1 and Mafa, proinsulin processing enzymes CpE, Pc1 and Pc2, and the glucose transporter Glut2 (Boucher et al., 2006; Kaneto et al. 2008) (FIG. 18a).

[5] = test system: MIN6 cells; assay: Annexin V and propidium iodide staining for apoptosis and necrosis; format: cell-based, murine; conditions: 5 mM, 3 hrs
Method: A) MIN6 cells were treated for 4 hrs with 0 uM (EtOH vehicle control), 20 uM or 200 uM CMPF prior to being loaded with Annexin V and propidium iodide fluorescent dyes, and counterstained with Hoechst dye. […] B) Primary CD1 islets were dispersed and treated with vehicle control (0 CMPF, black), 20 uM CMPF (grey), or 200 uM CMPF (white) for 48 hours, then stained with Annexin V, Propidium Iodide and Hoechst dye. Quantification of double positive staining was assessed by an Arrayscan VTI HCS reader.
Next the mechanism underlying the observed impairment in GSIS following treatment with CMPF was investigated. To determine whether CMPF was inhibiting GSIS by inducing beta cell apoptosis, Annexin V and Propidium Iodide staining was performed in MIN6 cells treated with vehicle (EtOH), 20 uM or 200 uM CMPF for 4 hrs to look for apoptosis and necrosis respectively. […] MIN6 cells treated with 5 mM H2O2 for 3 hrs were used as a positive control (FIG. 4).

[6] = molecular target: T1, OAT3 (Rattus norvegicus, UniProt Q9R1U7); conditions: concentrations of PCG that selectively inhibit OAT3; cited from earlier work
T1 construct: host or cells: kidney (in vivo, per the cited study)
T1 sequence (Q9R1U7 1-536): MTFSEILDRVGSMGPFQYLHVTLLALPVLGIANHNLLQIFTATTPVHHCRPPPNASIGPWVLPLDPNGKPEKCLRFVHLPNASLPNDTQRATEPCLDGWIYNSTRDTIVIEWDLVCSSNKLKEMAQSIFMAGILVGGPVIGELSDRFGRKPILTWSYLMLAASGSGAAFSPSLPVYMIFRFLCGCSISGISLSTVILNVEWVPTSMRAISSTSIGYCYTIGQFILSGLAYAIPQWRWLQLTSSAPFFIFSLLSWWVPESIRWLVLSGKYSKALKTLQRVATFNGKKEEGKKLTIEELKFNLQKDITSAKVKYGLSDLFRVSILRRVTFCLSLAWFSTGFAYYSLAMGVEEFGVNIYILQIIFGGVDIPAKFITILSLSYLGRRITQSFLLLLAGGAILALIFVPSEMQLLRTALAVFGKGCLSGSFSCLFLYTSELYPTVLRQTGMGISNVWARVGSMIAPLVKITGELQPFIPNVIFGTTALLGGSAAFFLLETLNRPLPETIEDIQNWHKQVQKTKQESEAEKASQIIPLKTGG

[7] = test system: CD1 mouse islets; assay: GSIS and insulin content of CMPF-treated islets with OAT inhibitors; format: cell-based
Excerpt: A) Microarray analysis of human islets showing expression of OAT transporters and beta-cell genes (n=3). Validation of OAT expression in human islets by (b) RT-PCR, (c) western blot, and (d) immunofluorescent staining with insulin (n=3-5). Human kidney samples are from the HK2 human proximal tubule cell line. GSIS from murine islets co-treated with OAT inhibitors (e) Probenecid, (f) benzylpenicillin (PCG) and (g) p-aminohippurate (PAH) (n=4/group). h) Total insulin content from murine islets co-treated with CMPF and PCG (n=4). Values mean+/−SEM. Student's t-test (a, e-h). *P<0.05, **P<0.01, ***P<0.001.
To determine if the OAT transporters are responsible for CMPF transport into beta cells, CD1 mouse islets were pre-treated 1 mM Probenecid prior to the addition of CMPF to ensure blockage of the channels and complete exclusion of CMPF from the cells. A dosage of 1 mM Probenecid was selected based on previous evidence that this concentration was sufficient to inhibit anion transport from beta cells without any observed effect on glucose-stimulated insulin secretion (Arkhammar et al. 1989). Islets were pre-treated with 1 mM Probenecid for 3 hours prior to the addition of 200 uM CMPF. After 24 hours cells were assessed by GSIS. Treatment with 200 uM CMPF alone produced a significant decrease in GSIS under both high glucose and KCl-stimulated conditions, consistent with previous findings, while treatment with 1 mM Probenecid for 27 hours had no effect on GSIS compared to vehicle controls. […] Therefore, probenecid inhibits the effect of CMPF. Similar results were obtained using the OAT3-specific inhibitor PCG. Islets were again pre-treated for 3 hours with 300 uM PCG prior to 24-hour 200 uM CMPF treatment (FIG. 14B).
To determine if OATs are responsible for CMPF transport into beta-cells, we utilized inhibitors of OAT function. Probenecid is a non-specific OAT-blocker (Miyamoto et al., 2012). Treatment of islets with 1 mM probenecid for 24 hrs rescued insulin secretion from CMPF-treated islets to control levels (FIG. 19e). To determine which OAT is primarily responsible for CMPF transport into beta-cells, we treated islets with 300 μM of benzylpenicillin (PCG), an OAT3-specific inhibitor, or 50 μM of paminohippurate (PAH), an OAT1-specific inhibitor (Deguchi et al., 2005). Consistent with previous reports that OAT3 is the dominant CMPF transporter (Deguchi et al., 2005), PCG was able to rescue insulin secretion and insulin content from CMPF-treated islets to control levels (FIG. 19f,h). However, treatment with PAH had no effect on secretion (FIG. 19g). Therefore, CMPF is transported into the beta-cell through OAT3, and blockage of this transporter prevents CMPF from impairing GSIS and insulin biosynthesis.

[8] = test system: mice; assay: Probenecid IP twice daily for 3 days in mice; format: in vivo
Method: Mice were injected IP with 150 mg/kg probenecid twice daily for 3 days as previously described (Baudoux et al., 2012).

[9] = test system: OAT transporter; conditions: 5 mg/kg CMPF co-administered with 150 mg/kg probenecid; cited from earlier work
[10] = 150 mg/kg IP twice daily for 3 days

Compound: CC(=O)N[C@@H](CS)C(=O)O [NAC, N-Acetyl-Cysteine, reference compound]
- insulin secretion (GSIS) in CMPF-treated islets [1]: rescued
- CMPF-induced increase in ROS production [2]: inhibited
- insulin content in CMPF-treated islets [3]: rescued
- CMPF-induced translocation of FOXO1 [4]: prevented
- CMPF-induced translocation of PDX1 [4]: prevented

Compound: OO [H2O2, reference compound]
- Annexin V and propidium iodide staining (positive control) [5]: only observed in the positive control

Compound: CC1(C)S[C@@H]2[C@H](NC(=O)Cc3ccccc3)C(=O)N2[C@H]1C(=O)O [PCG, benzylpenicillin]
- CMPF secretion prevented [6]: 65-75%
- insulin secretion, inhibitor alone ([7]; 300 uM): no significant effect
- effect of 200 uM CMPF on insulin secretion under high glucose ([7]; 300 uM, 3 hour pre-treatment, then 24 hours with CMPF): inhibited the effect of CMPF
- insulin content of CMPF-treated islets ([7]; 300 μM, to control levels): rescue

Compound: CCCN(CCC)S(=O)(=O)c1ccc(C(=O)O)cc1 [probenecid]
- body weight [8, 10]: No differences
- fasting blood glucose [8, 10]: No differences
- plasma uric acid concentrations ([8]; 150 mg/kg twice daily): significantly reduced
- glucose tolerance (2 g/kg OGTT) ([8]; on the 4th day): no significant difference
- effect of 200 uM CMPF on high-glucose and KCl-stimulated insulin secretion ([7]; 1 mM, 3 hour pre-treatment, then 24 hours with CMPF): completely abolished the effect of CMPF
- GSIS, inhibitor alone vs vehicle ([7]; 1 mM, 27 hours): no effect
- plasma clearance of CMPF [9]: significantly reduced

Compound: Nc1ccc(C(=O)NCC(=O)O)cc1 [PAH, p-aminohippurate]
- insulin secretion of CMPF-treated islets ([7]; 50 μM): no effect
